Assay [1] relates to HL-60 cell line. Briefly: Cell viability of HL-60 cell line after treating with inhibitors for 24 hrs. The format is cell-based, human. From the text:
The moderate cell grow inhibition ability for the two carboxylic acid ester prodrugs 20 and 21 could be attributed to the enzymatic hydrolysis that generated a free acid molecule (13ag) to function as an Mcl-1 inhibitor in the cells.

In assay [2] the target is T1, Mcl-1 (Homo sapiens (Human), UniProt Q07820). Briefly: Fluorescence polarization competition assay (FPCA), Mcl-1 / FITC-Bak BH3 peptide. As to conditions: for Ki: read-out: Mcl-1 Ki; for Mcl-1 Exp ΔG: ΔG=−RTlnKi from experimental Ki. It is filed as binding. The method, boiled down: (§1)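 Purified Mcl-1 (affinity tag cleaved, size-exclusion polished) competed against FITC-labeled Bak-BH3 peptide, read by fluorescence polarization. IC50 from Hill-equation fit; Ki derived from IC50 by the Nikolovska-Coleska equation.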
(In general: Polarisation of emitted light reports the rotation of a fluorescent probe.)

Assay [3] concerns the target Bcl-xL (Homo sapiens (Human), UniProt Q07817). Briefly: Fluorescence polarization competition assay, Bcl-xL. The format is binding. To be noted: for Ki: Ki from IC50 by Nikolovska-Coleska equation, NA = no activity, read-out: Bcl-xL Ki; for Bcl-xL Exp ΔG: ΔG from experimental Ki. The method, then:
Fluorescence polarization experiments were conducted using a BMG PHERAstar FS multimode microplate reader equipped with two PMTs for simultaneous measurements of the perpendicular and parallel fluorescence emission. The assays were performed in black polypropylene 384-well microplate (Costar) with a final volume of 20 microliter. […] Regression analysis was carried out using Origin (OriginLab, Northampton, Mass.) to fit the data to the Hill equation (1) to determine the initial binding affinity (KD) and the IC50 in the FPCA. For the fluorescence polarization competition titrations, an equation derived by Nikolovska-Coleska et al. was used to calculate the Ki from the IC50 data.

Assay [4] has as its system A375 melanoma cells. The assay is described as follows: Cell proliferation / viability, CellTiter-Blue assay, A375. It is filed as cell-based, human. As to conditions: for IC50: cell titer blue assay, read-out: IC50 inhibition of cell proliferation, A375. The protocol: (§2) Without being limited to any one theory, the poor efficacy in cells may be attributed to the charged carboxylic acid of 3bl.
The moderate cellular activity of ±-2 may, for instance, be due to limited cell penetration owing to the charged carboxylic acid. Thus, the acetoxymethyl ester ±-12 (R1=CH2OCOCH3) was prepared as a neutral prodrug of ±-2.
On the technique in general: Alamar Blue is a resazurin reagent that responds to reducing activity.

The target in assay [5] is T1, Mcl-1. The assay is described as follows: 2D 1H-15N HSQC NMR with 15N-labeled Mcl-1. As to conditions: 131 μM 15N-Mcl-1, 182 μM compound. It is filed as binding. The method, then: NMR spectra was collected at 25° C. with a Bruker AVANCE 800 NMR spectrometer (800.27 MHz for protons) equipped with pulsed-field gradients, four frequency channels, and triple resonance, z-axis gradient cryogenic probes. A one-second relaxation delay was used, and quadrature detection in the indirect dimensions was obtained with states-TPPI phase cycling; initial delays in the indirect dimensions were set to give zero- and first-order phase corrections of 90° and −180°, respectively. Data were processed using the processing program nmrPipe on Linux workstations. All proton chemical shifts are reported with respect to the H2O or HDO signal, taken to be 4.658 ppm relative to external TSP (0.0 ppm) at 37° C. The ^15N chemical shifts were indirectly referenced using the zero-point frequency at 37° C. of 0.10132905 for ^15N—^1H, as previously described.
All compounds used for NMR were initially suspended in 100% d6-DMSO. The NMR samples contained 131 μM ^15N-labeled Mcl-1, 182 μM compound, 20 mM HEPES, pH 6.8, 50 mM NaCl, 3 mM DTT, 20% D2O, and 5% D6-DMSO.

For assay [6], the system named is SK-MEL-5 melanoma cells. The assay is described as follows: Cell proliferation, cell titer blue assay, SK-MEL-5. It is filed as cell-based.
From the text: as §2

Assay [7] has as its system Mcl-1. The assay is described as follows: Fluorescence polarization competition assay (FPCA), Mcl-1 / FITC-Bak BH3 peptide. The format is binding, human. To be noted: for Exp. ΔG diff.: between Mcl-1 and Bcl-xL, positive favors Mcl-1; for Selectivity, Ki (Bcl-xL) divided by Ki (Mcl-1): Mcl-1 over Bcl-xL. The method, boiled down:
as §1

Setting [8] is: read-out: HL-60 IC50 0.5% FBS, 0.5% FBS.
[9] abbreviates: read-out: HL-60 IC50 10% FBS, 10% FBS.
The mark [10] stands for this setting: FPCA with FITC-Bak, Ki from IC50 by Nikolovska-Coleska equation.
Where [11] appears, read: CellTiter-Blue assay, read-out: GI50, viability of A375 cells.
Where [12] appears, read: read-out: IC50 inhibition of cell proliferation, SK-MEL-5.

Where “and” joins values, the source holds several entries; their conditions need not be identical. Equal values may be shown once. Read-outs that look alike come from different tables or passages of the source.

As usually defined, the Ki is a measure of affinity in units of concentration, obtained from inhibition or displacement. By GI50 is commonly meant the concentration that inhibits growth by half.

T1 sequence (Q07820 172-327): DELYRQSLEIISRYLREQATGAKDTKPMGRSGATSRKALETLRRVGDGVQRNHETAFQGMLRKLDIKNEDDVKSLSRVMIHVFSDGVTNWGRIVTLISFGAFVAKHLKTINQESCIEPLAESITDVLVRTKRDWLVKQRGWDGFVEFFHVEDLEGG
Chain of Bcl-xL (Q07817 whole entry): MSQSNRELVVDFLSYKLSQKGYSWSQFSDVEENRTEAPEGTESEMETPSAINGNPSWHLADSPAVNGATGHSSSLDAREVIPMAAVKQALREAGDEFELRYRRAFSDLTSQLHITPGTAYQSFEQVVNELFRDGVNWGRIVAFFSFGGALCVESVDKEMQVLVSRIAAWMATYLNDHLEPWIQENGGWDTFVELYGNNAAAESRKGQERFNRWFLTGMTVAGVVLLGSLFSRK

Consider `CC(C)CN(c1ccc(C(=O)O)c(O)c1)S(=O)(=O)c1ccc(Oc2ccccc2)cc1` [LC-4-099 13ag], for which the values for the IC50 in assay [1] (setting [8]) and in assay [1] (setting [9]) were 18.5 µM and more than 120 µM, respectively. In addition, the Ki in assay [2] (setting [10]) is 5.77 µM and 5.8 µM; in assay [3], 18 ± 4.6 µM.
`CC(=O)OCOC(=O)C1Cc2ccccc2N(S(=O)(=O)c2ccc(Oc3cc(C)c(Cl)c(C)c3)cc2)C1` (racemic) [±-12]: in assay [4] (setting [11]), the 50% growth inhibitory concentration (GI50) stood at 73 µM. The Ki in assay [2] (FPC assay) and in assay [2] (setting [10]) was more than 500 µM each time.
As for `Cc1cc(CCCN(Cc2ccccc2)c2ccc(C(=O)O)c(O)c2)cc(C)c1Cl` [LC-5-188 35], the IC50 in assay [1] (setting [8]) was determined as 7.36 µM; in assay [1] (setting [9]) it was 88 µM. Moreover, the Ki in assay [2] (setting [10]) was found to be 1.45 µM; in assay [3] it was 2.98 ± 0.406 µM.
`COC(=O)c1ccc(N(CC(C)C)S(=O)(=O)c2ccc(Oc3ccccc3)cc2)cc1O` [LC-4-131 20]: the IC50 in assay [1] (setting [8]) worked out at 68.1 µM; in assay [1] (setting [9]), 76.4 µM. The inhibition constant Ki in assay [2] (setting [10]) was more than 500 µM.
On to `Cc1cc(Oc2ccc(S(=O)(=O)N(Cc3ccccc3)c3ccc(C(=O)O)c(O)c3)cc2)cc(C)c1Cl` [LC-4-118 13cc], for which the IC50 in assay [1] (setting [8]) was less than 7.5 µM; in assay [1] (setting [9]), 53.2 µM. For the same compound, the Ki in assay [2] (setting [10]) is 0.659 µM and 0.629 µM; in assay [3] it was 1.67 ± 0.351 µM.
Take `Cc1cc(Oc2ccc(S(=O)(=O)N(CC(C)C)c3ccc(C(=O)O)c(O)c3)cc2)cc(C)c1Cl` [4jc117-5 13ak]: the Ki was 0.778 ± 0.05 µM in assay [2] (setting [10]), 0.778 µM in assay [2] (FPCA) and 1.63 ± 0.177 µM in assay [3]. In assay [5], the “Mcl-1 backbone 1H-15N chemical shift perturbation on compound binding” value was “R263 and T266 were both perturbed”.
As for `CC(C)CN(c1ccc(OC(C)C)cc1)S(=O)(=O)c1cc(C(=O)O)c(O)c2ccccc12` [Compound 3ba, 1-Hydroxy-4-(N-isobutyl-N-(4-isopropoxyphenyl)sulfamoyl)-2-naphthoic Acid], the IC50 in assay [4] (Homo sapiens, A-375) came out at 150 µM. The Ki was determined as 0.487 µM in assay [2] (setting [10]) and 6.08 ± 0.81 µM in assay [3]. For the same compound, in assay [5], the “Mcl-1 backbone 1H-15N chemical shift perturbation on compound binding” value was “perturbation of the chemical shifts”.
As for `CC(=O)OCOC(=O)c1ccc(N(CC(C)C)S(=O)(=O)c2ccc(Oc3ccccc3)cc2)cc1O` [LC-4-141 21], the IC50 is 46.4 µM in assay [1] (setting [8]) and more than 120 µM in assay [1] (setting [9]).
Regarding `Cc1cc(Oc2ccc(N(Cc3ccccc3)S(=O)(=O)c3cc(C(=O)O)c(O)c4ccccc34)cc2)cc(C)c1Cl` [Compound 3bl, 4-(N-Benzyl-N-(4-(4-chloro-3,5-dimethylphenoxy)phenyl)sulfamoyl)-1-hydroxy-2-naphthoic Acid], the IC50 in assay [6] (Homo sapiens, SK-MEL-5, read-out: IC50 inhibition of cell proliferation, SK-MEL-5) amounted to 90 µM; in assay [4] (Homo sapiens, A-375), 50 µM. The Ki in assay [2] (FPCA) came to 0.031 µM; in assay [3], 0.34 ± 0.13 µM.
As to `Cc1cc(Oc2ccc(S(=O)(=O)N(Cc3ccccc3)c3ccc(C(=O)NS(=O)(=O)c4ccc(NCC5CCOCC5)c([N+](=O)[O-])c4)c(O)c3)cc2)cc(C)c1Cl` [LC-5-131 31], the values for the IC50 in assay [1] (setting [8]) and in assay [1] (setting [9]) were 9.96 µM and more than 120 µM, respectively. In addition, the values for the inhibition constant (Ki) in assay [2] (setting [10]), in assay [2] (FPCA) and in assay [3] were 0.8 ± 0.07 µM, 0.8 µM and 1.61 ± 0.176 µM, respectively.
As for `COC(=O)c1cc(S(=O)(=O)N(CC(C)C)c2ccc(OC(C)C)cc2)c2ccccc2c1O` [Compound 13], the IC50 in assay [6] (setting [12]) and in assay [4] was approximately 300 µM throughout. Further, the “Binding affinity to Mcl-1 in vitro” value in assay [2] (FPCA) is reported as “no binding affinity”.
As to `CC(=O)OCOC(=O)c1cc(S(=O)(=O)N(CC(C)C)c2ccc(OC(C)C)cc2)c2ccccc2c1O` [Compound 14], the IC50 in assay [6] (setting [12]) and in assay [4] was 15 µM each time. In assay [2] (FPCA), the “Binding affinity to Mcl-1 in vitro” value was “no binding affinity”.
Consider `O=C(O)c1cc(S(=O)(=O)Nc2ccc(Br)cc2Br)c2ccccc2c1O` [3o; SF-5-290], for which, in assay [7], the “Exp. ΔG diff.” value stood at 1.01 kcal/mol. In assay [2], the “Mcl-1 Exp ΔG” value is -8.69 kcal/mol. For the same compound, in assay [3], the “Bcl-xL Exp ΔG” value is -7.68 kcal/mol.
For `Cc1cc(Oc2ccc(N(C3CCCC3)S(=O)(=O)c3cc(C(=O)O)c(O)c4ccccc34)cc2)cc(C)c1Cl` [3bk; JY-5-379] the same measures were 1.29 kcal/mol, -10.20 kcal/mol and -8.91 kcal/mol.
In the case of `O=C(O)c1cc(S(=O)(=O)Nc2cccc3ccccc23)c2ccccc2c1O` [Compound 3p, 1-Hydroxy-4-(N-(naphthalen-1-yl)sulfamoyl)-2-naphthoic Acid], in assay [7], the “Selectivity, Ki (Bcl-xL) divided by Ki (Mcl-1)” value (shortened to “Selectivity, Ki (Bcl-xL) divided”) was determined as 10. Also, the inhibition constant Ki in assay [2] (setting [10]) amounted to 11.2 ± 2 µM; in assay [3], 110 ± 45 µM.
On the same counts, the results for `Cc1cc(Oc2ccc(NS(=O)(=O)c3cc(C(=O)O)c(O)c4ccccc34)cc2)cc(C)c1Cl` [Compound 3bi, 4-(N-(4-(4-Chloro-3,5-dimethylphenoxy)phenyl)sulfamoyl)-1-hydroxy-2-naphthoic Acid] are 4.1, 0.117 ± 0.06 µM and 0.48 ± 0.05 µM.
With `Cc1cc(Oc2ccc(S(=O)(=O)N(CC(C)C)c3ccc(O)c(C(=O)O)c3)cc2)cc(C)c1Cl` [JY-5-304 18bd], the IC50 is 9.82 µM in assay [1] (setting [8]) and more than 120 µM in assay [1] (setting [9]). Further, the inhibition constant (Ki) in assay [2] (setting [10]) amounted to 0.586 ± 0.041 µM; in assay [2] (FPCA), 0.586 µM; in assay [3], 2.91 ± 0.191 µM.
Turning to `Cc1cc(Oc2ccc(N(C3CCCC3)S(=O)(=O)c3cc(C(=O)O)c(O)c4ccccc34)cc2)cc(C)c1Cl` [Compound 3bk, 4-(N-(4-(4-Chloro-3,5-dimethylphenoxy)phenyl)-N-cyclopentylsulfamoyl)-1-hydroxy-2-naphthoic Acid], the “Selectivity, Ki (Bcl-xL) divided” value in assay [7] turned out to be 8.8. The inhibition constant Ki in assay [2] (FPCA) was 0.033 µM; in assay [3], 0.29 ± 0.05 µM.
Regarding `O=C(O)c1cc(S(=O)(=O)Nc2ccc(Oc3ccc(Cl)cc3Cl)cc2)c2ccccc2c1O` [Compound 3bg, 4-(N-(4-(2,4-Dichlorophenoxy)phenyl)sulfamoyl)-1-hydroxy-2-naphthoic Acid], in assay [7], the “Selectivity, Ki (Bcl-xL) divided” value is 2.4. Besides, the Ki in assay [2] (setting [10]) was 0.079 µM; in assay [3] it was 0.19 ± 0.02 µM.
`Cc1cc(Oc2ccc(S(=O)(=O)N3CC(C(=O)O)Cc4ccccc43)cc2)cc(C)c1Cl` (racemic) [±-2]: the concentration for 50% growth inhibition (GI50) in assay [4] (setting [11]) was 50 µM; in assay [4] (read-out: GI50, viability of A375 melanoma cells), 50 µM. Further, the figures for the Ki in assay [2] (setting [10]) and in assay [2] (FPCA) were 0.12 ± 0.053 µM and 0.12 µM, respectively. In addition, the “Mcl-1 backbone 1H-15N chemical shift perturbation on compound binding” value in assay [5] is listed as “significant chemical shift changes”.

The record behind these values is US10858316B2, “Small molecule inhibitors of the MCL-1 oncoprotein and uses thereof” (University of Maryland, Baltimore, priority 2015, dated 2020).
